pIC50: −log10 of the molar value.
Biological target: USP30 (Homo sapiens (Human), UniProt Q70CQ3)
Assay: USP30 biochemical IC50 assay (fluorescence polarisation)
Settings: enzyme and compound incubated 30 min at room temp; TAMRA labelled peptide-ubiquitin substrate 50 nM; read after 2 hr incubation; read-out: IC50 range
Experimental: USP30 Biochemical IC50 Assay
Dilution plates were prepared at 21 times the final concentration ([…] for a final concentration of 100 μM) in 50% DMSO in a 96-well polypropylene V-bottom plate (Greiner #651201). A typical 8-point dilution series to be 100, 30, 10, 3, 1, 0.3, 0.1, […].
Reactions were performed in duplicate in black 384 well plates (small volume, Greiner 784076) in a final reaction volume of 21 μl. Either 1 μl of 50% DMSO or diluted compound was added to the plate. USP30 was diluted in reaction buffer (40 mM Tris, pH 7.5, 0.005% Tween 20, 0.5 mg/ml BSA, 5 mM beta-mercaptoethanol) to the equivalent of 0.05 µl/well and 10 μl of diluted USP30 was added to the compound. Enzyme and compound were incubated for 30 min at room temp. Reactions were initiated by the addition of 50 nM of TAMRA labelled peptide linked to ubiquitin via an iso-peptide bond as fluorescence polarisation substrate. Reactions were read immediately after addition of substrate and following a 2 hr incubation at room temperature. Readings were performed on a Pherastar Plus (BMG Labtech). λ Excitation 540 nm; λ Emission 590 nm.

USP30, sequence (Q70CQ3 57-517): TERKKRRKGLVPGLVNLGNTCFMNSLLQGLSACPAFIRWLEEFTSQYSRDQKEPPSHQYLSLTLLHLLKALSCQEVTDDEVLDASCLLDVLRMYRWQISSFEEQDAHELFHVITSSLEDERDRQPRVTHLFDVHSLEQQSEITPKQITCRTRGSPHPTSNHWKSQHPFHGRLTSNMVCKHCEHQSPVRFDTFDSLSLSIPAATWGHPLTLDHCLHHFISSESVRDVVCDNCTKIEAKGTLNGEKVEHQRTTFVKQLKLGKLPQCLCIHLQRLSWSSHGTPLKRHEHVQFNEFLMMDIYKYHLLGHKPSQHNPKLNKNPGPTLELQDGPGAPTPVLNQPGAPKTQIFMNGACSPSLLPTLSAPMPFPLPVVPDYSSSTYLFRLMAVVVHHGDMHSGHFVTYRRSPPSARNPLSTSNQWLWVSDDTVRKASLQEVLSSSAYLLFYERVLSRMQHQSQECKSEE

| pIC50 | Structure (SMILES) |
| --- | --- |
| 5.00 to 6.00 | N#CN1CC[C@@H](C(=O)N2CCc3ccc(-c4ccccc4)cc32)C1 [Example 11, (R)-3-(6-Phenylindoline-1-carbonyl)pyrrolidine-1-carbonitrile] |
| 5.00 to 6.00 | CNC(=O)c1cc(-c2ccccc2)c2c(c1)N(C(=O)[C@@H]1CCN(C#N)C1)CC2 [Example 69, (R)-1-(1-Cyanopyrrolidine-3-carbonyl)-N-methyl-4-phenylindoline-6-carboxamide] |
| 5.00 to 6.00 | CN(Cc1nc2ccccc2s1)C(=O)C1CCN(C#N)C1 (stereo not shown) [Example 45, N-(Benzo[d]thiazol-2-ylmethyl)-1-cyano-N-methylpyrrolidine-3-carboxamide] |
| 6.00 to 7.00 | CCc1cccc(-c2cc(C(=O)NC)cc3c2CCN3C(=O)[C@@H]2CCN(C#N)C2)c1 [Example 68, (R)-1-(1-Cyanopyrrolidine-3-carbonyl)-4-(3-ethylphenyl)-N-methylindoline-6-carboxamide] |
| 5.00 to 6.00 | CCN(C(=O)C1CCN(C#N)C1)c1ncc(-c2ccccc2)s1 (stereo not shown) [Example 2, 1-cyano-N-ethyl-N-(5-phenylthiazol-2-yl)pyrrolidine-3-carboxamide] |
| 6.00 to 7.00 | CN(C(=O)[C@H]1CCN(C#N)C1)c1ncc(-c2ccccc2)s1 [Example 3, (S)-1-Cyano-N-methyl-N-(5-phenylthiazol-2-yl)pyrrolidine-3-carboxamide] |
| 5.00 to 6.00 | CC(C)N(C(=O)C1CCN(C#N)C1)c1nc(-c2ccccc2)cs1 (stereo not shown) [Example 7, 1-Cyano-N-isopropyl-N-(4-phenylthiazol-2-yl)pyrrolidine-3-carboxamide] |
| 6.00 to 7.00 | N#CN1CC[C@@](F)(C(=O)N2CCc3cc(-c4ccccc4)ccc32)C1 [Example 53, (S)-3-Fluoro-3-(5-phenylindoline-1-carbonyl)pyrrolidine-1-carbonitrile] |
| 6.00 to 7.00 | CN1CCN(c2ccc(-c3ccc4c(c3)CCN4C(=O)C3(F)CCN(C#N)C3)cc2)CC1 (stereo not shown) [Example 37, 3-Fluoro-3-(5-(4-(4-methylpiperazin-1-yl)phenyl)indoline-1-carbonyl)pyrrolidine-1-carbonitrile] |
| 5.00 to 6.00 | CN(C(=O)[C@H]1CCN(C#N)C1)c1cccc(-c2ccccc2)n1 [Example 5, (S)-1-Cyano-N-methyl-N-(6-phenylpyridin-2-yl)pyrrolidine-3-carboxamide] |
| 5.00 to 6.00 | CN(C(=O)[C@@H]1CCN(C#N)C1)c1cc(-c2ccccc2)cnn1 [Example 32, (R)-1-Cyano-N-methyl-N-(5-phenylpyridazin-3-yl)pyrrolidine-3-carboxamide] |
| 6.00 to 7.00 | N#CN1CC[C@@H](C(=O)N2CCOc3cc(-c4ccccc4)ccc32)C1 [Example 24, (R)-3-(7-Phenyl-3,4-dihydro-2H-benzo[b][1,4]oxazine-4-carbonyl)pyrrolidine-1-carbonitrile] |
| 6.00 to 7.00 | Cn1ncc2cc(-c3ccc4c(c3)CCN4C(=O)C3(F)CCN(C#N)C3)ccc21 (stereo not shown) [Example 39, 3-Fluoro-3-(5-(1-methyl-1H-indazol-5-yl)indoline-1-carbonyl)pyrrolidine-1-carbonitrile] |
| 5.00 to 6.00 | N#CN1CC[C@@H](C(=O)N2CCOc3c(-c4ccccc4)cccc32)C1 [Example 26, (R)-3-(8-Phenyl-3,4-dihydro-2H-benzo[b][1,4]oxazine-4-carbonyl)pyrrolidine-1-carbonitrile] |
| 6.00 to 7.00 | CN(Cc1csc(-c2ccccc2)n1)C(=O)C1CCN(C#N)C1 (stereo not shown) [Example 47, 1-Cyano-N-methyl-N-((2-phenylthiazol-4-yl)methyl)pyrrolidine-3-carboxamide] |
| 6.00 to 7.00 | N#CN1CC[C@H](C(=O)N2CCc3cc(-c4cccc(Cl)c4)ccc32)C1 [Example 12, (S)-3-(5-(3-Chlorophenyl)indoline-1-carbonyl)pyrrolidine-1-carbonitrile] |

| pIC50 | Structure (SMILES) |
| --- | --- |
| 6.00 to 7.00 | CN(C(=O)C1(F)CCN(C#N)C1)c1nc2ccccc2s1 (stereo not shown) [Example 9, N-(Benzo[d]thiazol-2-yl)-1-cyano-3-fluoro-N-methylpyrrolidine-3-carboxamide] |
| 6.00 to 7.00 | N#CN1CC[C@H](C(=O)N2CCc3c(-c4ccccc4)cccc32)C1 [Example 10, (S)-3-(4-Phenylindoline-1-carbonyl)pyrrolidine-1-carbonitrile] |
| 5.00 to 6.00 | N#CN1CC[C@@H](C(=O)N2CCOc3cc(-n4cccn4)ccc32)C1 [Example 30, (R)-3-(7-(1H-Pyrazol-1-yl)-3,4-dihydro-2H-benzo[b][1,4]oxazine-4-carbonyl)-pyrrolidine-1-carbonitrile] |
| 6.00 to 7.00 | N#CN1CC[C@](F)(C(=O)N2CCc3cc(-c4ccccc4)ccc32)C1 [Example 54, (R)-3-Fluoro-3-(5-phenylindoline-1-carbonyl)pyrrolidine-1-carbonitrile] |
| 6.00 to 7.00 | N#CN1CC[C@H](C(=O)N2CCc3cc(-c4cccc5[nH]ncc45)cnc32)C1 [Example 60, (S)-3-(5-(1H-indazol-4-yl)-2,3-dihydro-1H-pyrrolo[2,3-b]pyridine-1-carbonyl)-pyrrolidine-1-carbonitrile] |
| 6.00 to 7.00 | N#CN1CCC(F)(C(=O)N2CCc3cc(-c4cccnc4)ccc32)C1 (racemic) [Example 57, 3-Fluoro-3-(5-(pyridin-3-yl)indoline-1-carbonyl)pyrrolidine-1-carbonitrile] |
| 6.00 to 7.00 | CN(C(=O)C1(F)CCN(C#N)C1)c1ncc(-c2ccccc2)s1 (stereo not shown) [Example 8, 1-Cyano-3-fluoro-N-methyl-N-(5-phenylthiazol-2-yl)pyrrolidine-3-carboxamide] |
| 6.00 to 7.00 | COc1ccc(-c2ccc3c(c2)CCN3C(=O)C2(F)CCN(C#N)C2)cn1 (stereo not shown) [Example 43, 3-Fluoro-3-(5-(6-methoxypyridin-3-yl)indoline-1-carbonyl)pyrrolidine-1-carbonitrile] |
| 5.00 to 6.00 | N#CN1CC[C@H](C(=O)N2CCc3cc(-c4ccccc4)cnc32)C1 [Example 21, (S)-3-(5-Phenyl-2,3-dihydro-1H-pyrrolo[2,3-b]pyridine-1-carbonyl)pyrrolidine-1-carbonitrile] |
| 5.00 to 6.00 | N#CN1CCC(C(=O)N2CCc3nc(-c4ccccc4)ccc32)C1 (stereo not shown) [Example 51, 3-(5-Phenyl-2,3-dihydro-1H-pyrrolo[3,2-b]pyridine-1-carbonyl)pyrrolidine-1-carbonitrile] |
| 5.00 to 6.00 | CCN(C(=O)C1CCN(C#N)C1)c1nc(-c2ccccc2)cs1 (stereo not shown) [Example 1, 1-Cyano-N-ethyl-N-(4-phenylthiazol-2-yl)pyrrolidine-3-carboxamide] |
| 5.00 to 6.00 | Cn1nccc1-c1ccc2c(c1)CCN2C(=O)C1(F)CCN(C#N)C1 (stereo not shown) [Example 36, 3-Fluoro-3-(5-(1-methyl-1H-pyrazol-5-yl)indoline-1-carbonyl)pyrrolidine-1-carbonitrile] |
| 6.00 to 7.00 | N#CN1CCC(F)(C(=O)N2CCc3ccc(-c4ccccc4)nc32)C1 (stereo not shown) [Example 16, 3-Fluoro-3-(6-phenyl-2,3-dihydro-1-H-pyrrolo[2,3-b]pyridine-1-carbonyl)pyrrolidine-1-carbonitrile] |
| 6.00 to 7.00 | N#CN1CCC(F)(C(=O)N2CCc3cc(-c4cccc(NS(=O)(=O)C5CC5)c4)ccc32)C1 (stereo not shown) [Example 42, N-(3-(1-(1-Cyano-3-fluoropyrrolidine-3-carbonyl)indolin-5-yl)phenyl)cyclopropanesulfonamide] |
| 5.00 to 6.00 | N#CN1CCC(F)(C(=O)N2CCc3cc(C(=O)NCc4ccccc4)ccc32)C1 (stereo not shown) [Example 67, N-Benzyl-1-(1-cyano-3-fluoropyrrolidine-3-carbonyl)indoline-5-carboxamide] |

Reference: patent US10640498B2, “Compounds” (MISSION THERAPEUTICS LIMITED, priority 2016, dated 2020)
